Bounds are passed on as bounds.

Consider one compound from ChEMBL document CHEMBL1148572, “1-((S)-2-aminopropyl)-1H-indazol-6-ol: a potent peripherally acting 5-HT2 receptor agonist with ocular hypotensive activity” (J Med Chem, 2006).

Data set [1] deals with T1, B2 bradykinin receptor (Homo sapiens) (UniProt P30411).
T1 sequence (whole entry): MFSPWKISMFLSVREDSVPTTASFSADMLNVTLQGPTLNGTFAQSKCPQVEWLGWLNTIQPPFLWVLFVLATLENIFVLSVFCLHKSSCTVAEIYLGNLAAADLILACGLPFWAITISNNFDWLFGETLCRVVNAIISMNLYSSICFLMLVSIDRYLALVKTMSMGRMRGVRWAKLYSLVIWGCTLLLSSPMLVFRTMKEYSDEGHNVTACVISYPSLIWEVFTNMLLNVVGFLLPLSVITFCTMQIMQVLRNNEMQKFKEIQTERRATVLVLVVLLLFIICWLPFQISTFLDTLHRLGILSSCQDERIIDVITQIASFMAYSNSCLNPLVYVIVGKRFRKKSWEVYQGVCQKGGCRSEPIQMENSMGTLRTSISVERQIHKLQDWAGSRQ
Description: Inhibition of bradykinin 2 receptor at 1 nM.

Data set [2] deals with GABA-A receptor; agonist GABA site (Homo sapiens) (UniProt P14867+P47870+P28472+P48169+P34903+P18505+P47869+P31644+Q16445). Put plainly: Inhibition of agonist site of GABAA receptor at 10 uM. In kind it is functional.
The target in data set [3] is Adrenergic receptor beta (Homo sapiens) (UniProt P08588+P07550+P13945). Put plainly: Inhibition of non selective binding to adrenergic beta receptor at 100 nM. The class given is protein assay.
In data set [4] the target is L-type calcium channel, dihydropyridine site (Homo sapiens, UniProt O60840+Q01668+Q13698+Q13936). Description: Inhibitory activity at dihydropyridine site of Calcium channel L type at 1 nM. The class given is protein assay.
Data set [5] can be described thus: Half life in phosphate buffer at pH 7.4 in 25 degC. The class given is ADME.
For data set [6], the target named is Glutamate [NMDA] receptor (Homo sapiens) (UniProt Q05586+Q12879+Q13224+O15399+O60391+Q14957+Q8TCU5). Description: Inhibition of agonist site of NMDA receptor at 10 uM. The class given is functional.
Data set [7] concerns the target Adenosine receptor (Homo sapiens) (UniProt P30542+P29275+P0DMS8+P29274). Put plainly: Inhibition of non selective binding to adenosine receptor at 10 uM. In kind it is protein assay.
Data set [8] concerns the target T2, Androgen receptor (Homo sapiens) (UniProt P10275).
T2 sequence (whole entry): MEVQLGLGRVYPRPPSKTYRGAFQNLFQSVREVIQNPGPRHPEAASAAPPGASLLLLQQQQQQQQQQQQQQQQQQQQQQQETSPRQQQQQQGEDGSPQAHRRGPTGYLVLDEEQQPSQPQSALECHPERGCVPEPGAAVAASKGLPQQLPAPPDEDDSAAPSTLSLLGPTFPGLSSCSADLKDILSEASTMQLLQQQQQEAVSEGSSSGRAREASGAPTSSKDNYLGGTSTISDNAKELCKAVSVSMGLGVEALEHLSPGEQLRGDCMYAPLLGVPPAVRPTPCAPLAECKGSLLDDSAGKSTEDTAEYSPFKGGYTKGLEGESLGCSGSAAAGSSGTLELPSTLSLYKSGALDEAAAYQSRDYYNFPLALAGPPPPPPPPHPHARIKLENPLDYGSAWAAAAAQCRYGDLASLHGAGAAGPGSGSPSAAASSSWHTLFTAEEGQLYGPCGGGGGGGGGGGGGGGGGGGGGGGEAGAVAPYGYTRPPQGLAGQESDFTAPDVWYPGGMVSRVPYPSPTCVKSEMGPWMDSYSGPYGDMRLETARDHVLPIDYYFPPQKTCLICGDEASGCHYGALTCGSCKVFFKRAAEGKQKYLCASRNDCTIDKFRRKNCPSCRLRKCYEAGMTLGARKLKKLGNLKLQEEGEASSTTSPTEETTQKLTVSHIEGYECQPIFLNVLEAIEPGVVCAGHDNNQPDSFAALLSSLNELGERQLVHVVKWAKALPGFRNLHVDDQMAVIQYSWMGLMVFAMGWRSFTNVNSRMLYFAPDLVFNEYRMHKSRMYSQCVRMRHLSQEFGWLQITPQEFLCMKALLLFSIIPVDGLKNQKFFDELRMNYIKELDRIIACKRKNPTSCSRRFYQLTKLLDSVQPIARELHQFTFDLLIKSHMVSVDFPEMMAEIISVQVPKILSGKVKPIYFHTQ
Description: Inhibition of testosterone receptor at 100 nM.

In data set [9] the target is 5-hydroxytryptamine receptor 1B (Homo sapiens, UniProt P28222). Description: Inhibitory activity against 5HT1B receptor.
Data set [10] has as its target Epidermal growth factor receptor (Homo sapiens) (UniProt P00533). Put plainly: Inhibition of EGFR at 10 uM.
Data set [11] deals with Muscarinic acetylcholine receptor (Homo sapiens) (UniProt P20309+P08173+P11229+P08172+P08912). Put plainly: Inhibition of non selective binding to muscarinic receptor at 100 nM. In kind it is protein assay.
The target of data set [12] is T3, Endothelin-1 receptor (Homo sapiens) (UniProt P25101).
T3 sequence (whole entry): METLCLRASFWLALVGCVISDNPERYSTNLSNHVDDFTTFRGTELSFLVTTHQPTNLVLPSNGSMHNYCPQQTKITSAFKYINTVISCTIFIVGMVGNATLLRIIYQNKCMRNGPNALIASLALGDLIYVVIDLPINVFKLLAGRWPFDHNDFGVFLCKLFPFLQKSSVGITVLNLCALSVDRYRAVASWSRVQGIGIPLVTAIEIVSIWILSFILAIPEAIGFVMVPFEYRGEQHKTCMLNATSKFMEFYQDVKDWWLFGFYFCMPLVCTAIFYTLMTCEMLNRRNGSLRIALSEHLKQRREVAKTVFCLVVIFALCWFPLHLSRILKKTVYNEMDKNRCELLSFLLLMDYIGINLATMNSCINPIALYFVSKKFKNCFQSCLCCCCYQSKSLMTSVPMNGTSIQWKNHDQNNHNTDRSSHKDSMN
Put plainly: Inhibition of human recombinant endothelin 1 receptor 1 nM.

Data set [13] deals with T2, Androgen receptor (Homo sapiens). Put plainly: Inhibition of testosterone receptor at 1 nM.
Data set [14] has as its target 5-hydroxytryptamine receptor 2A (Rattus norvegicus, UniProt P14842). In kind it is tissue-based, Cerebral cortex.
Data set [15] has as its target Sigma non-opioid intracellular receptor 1 (Homo sapiens) (UniProt Q99720). Put plainly: Inhibition of non selective binding to sigma receptor at 100 nM.

Chain of Epidermal growth factor receptor (Homo sapiens) (P00533 whole entry): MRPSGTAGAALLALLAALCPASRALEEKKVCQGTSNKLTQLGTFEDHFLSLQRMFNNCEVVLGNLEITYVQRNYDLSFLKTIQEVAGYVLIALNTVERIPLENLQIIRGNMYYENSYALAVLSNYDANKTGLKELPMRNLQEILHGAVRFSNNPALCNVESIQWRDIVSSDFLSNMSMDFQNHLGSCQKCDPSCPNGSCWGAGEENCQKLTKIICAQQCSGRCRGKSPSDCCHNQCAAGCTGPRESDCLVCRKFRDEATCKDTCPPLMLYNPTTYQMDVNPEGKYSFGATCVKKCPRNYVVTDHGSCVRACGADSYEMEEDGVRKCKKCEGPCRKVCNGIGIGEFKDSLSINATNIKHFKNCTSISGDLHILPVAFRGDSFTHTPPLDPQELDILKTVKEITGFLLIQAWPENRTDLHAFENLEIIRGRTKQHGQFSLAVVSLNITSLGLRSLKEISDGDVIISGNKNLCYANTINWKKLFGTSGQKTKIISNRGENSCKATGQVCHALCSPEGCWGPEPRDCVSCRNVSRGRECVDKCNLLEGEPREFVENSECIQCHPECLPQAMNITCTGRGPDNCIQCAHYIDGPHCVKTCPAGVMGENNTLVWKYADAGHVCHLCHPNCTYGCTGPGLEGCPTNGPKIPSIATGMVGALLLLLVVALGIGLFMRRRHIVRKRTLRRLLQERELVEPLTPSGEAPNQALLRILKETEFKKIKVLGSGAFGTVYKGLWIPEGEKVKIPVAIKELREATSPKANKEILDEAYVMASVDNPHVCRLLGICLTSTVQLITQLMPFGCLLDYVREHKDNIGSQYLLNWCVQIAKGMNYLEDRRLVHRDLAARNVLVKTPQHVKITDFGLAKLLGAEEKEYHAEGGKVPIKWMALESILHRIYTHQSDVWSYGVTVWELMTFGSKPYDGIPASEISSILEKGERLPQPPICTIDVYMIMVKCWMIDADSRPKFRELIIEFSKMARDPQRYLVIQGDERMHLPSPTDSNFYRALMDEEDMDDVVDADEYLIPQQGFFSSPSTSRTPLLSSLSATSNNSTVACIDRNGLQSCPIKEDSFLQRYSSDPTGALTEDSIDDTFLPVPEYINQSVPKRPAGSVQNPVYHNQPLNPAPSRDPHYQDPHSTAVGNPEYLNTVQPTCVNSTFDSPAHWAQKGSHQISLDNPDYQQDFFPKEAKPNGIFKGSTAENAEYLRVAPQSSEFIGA
Chain of Adenosine receptor (Homo sapiens) (P0DMS8 whole entry, looked up): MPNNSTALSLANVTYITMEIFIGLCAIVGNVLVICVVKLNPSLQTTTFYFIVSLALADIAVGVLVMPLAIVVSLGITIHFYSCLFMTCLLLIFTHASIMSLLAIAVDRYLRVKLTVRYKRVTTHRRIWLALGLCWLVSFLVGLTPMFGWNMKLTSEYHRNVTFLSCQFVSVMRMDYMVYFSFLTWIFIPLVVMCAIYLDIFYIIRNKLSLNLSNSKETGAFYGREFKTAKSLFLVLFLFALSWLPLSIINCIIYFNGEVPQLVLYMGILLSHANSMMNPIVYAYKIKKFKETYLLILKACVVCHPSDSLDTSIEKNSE
Chain of Adenosine receptor (Homo sapiens) (P29274 whole entry, looked up): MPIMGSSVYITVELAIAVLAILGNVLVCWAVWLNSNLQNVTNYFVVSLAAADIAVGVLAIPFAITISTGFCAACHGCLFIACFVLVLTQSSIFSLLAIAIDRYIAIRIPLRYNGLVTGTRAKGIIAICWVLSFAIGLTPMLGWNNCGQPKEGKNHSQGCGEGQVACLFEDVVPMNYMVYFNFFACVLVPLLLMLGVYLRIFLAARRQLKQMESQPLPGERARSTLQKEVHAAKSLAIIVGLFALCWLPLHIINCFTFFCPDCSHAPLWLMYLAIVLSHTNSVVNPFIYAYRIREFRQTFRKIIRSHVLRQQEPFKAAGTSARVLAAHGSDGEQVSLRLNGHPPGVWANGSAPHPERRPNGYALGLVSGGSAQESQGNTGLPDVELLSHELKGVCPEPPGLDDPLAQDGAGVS
Chain of Adenosine receptor (Homo sapiens) (P29275 whole entry, looked up): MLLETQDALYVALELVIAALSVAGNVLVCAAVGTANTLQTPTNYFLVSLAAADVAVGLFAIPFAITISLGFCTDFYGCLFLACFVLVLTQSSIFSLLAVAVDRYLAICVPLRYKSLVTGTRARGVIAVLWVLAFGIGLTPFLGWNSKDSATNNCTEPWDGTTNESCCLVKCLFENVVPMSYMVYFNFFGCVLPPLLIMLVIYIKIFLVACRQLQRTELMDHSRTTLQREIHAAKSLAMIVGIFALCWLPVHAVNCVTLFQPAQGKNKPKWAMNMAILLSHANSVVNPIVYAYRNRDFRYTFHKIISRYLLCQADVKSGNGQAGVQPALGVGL
Chain of Adenosine receptor (Homo sapiens) (P30542 whole entry, looked up): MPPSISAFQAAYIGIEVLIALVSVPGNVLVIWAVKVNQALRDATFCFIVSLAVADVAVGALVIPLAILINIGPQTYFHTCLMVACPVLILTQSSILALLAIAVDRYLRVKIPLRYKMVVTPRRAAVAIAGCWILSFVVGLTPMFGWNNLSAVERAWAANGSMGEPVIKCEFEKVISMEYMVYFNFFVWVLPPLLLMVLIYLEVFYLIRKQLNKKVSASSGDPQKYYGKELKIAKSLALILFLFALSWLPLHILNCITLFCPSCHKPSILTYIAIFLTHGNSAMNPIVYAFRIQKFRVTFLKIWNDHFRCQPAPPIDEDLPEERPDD
Chain of 5-hydroxytryptamine receptor 2A (P14842 whole entry): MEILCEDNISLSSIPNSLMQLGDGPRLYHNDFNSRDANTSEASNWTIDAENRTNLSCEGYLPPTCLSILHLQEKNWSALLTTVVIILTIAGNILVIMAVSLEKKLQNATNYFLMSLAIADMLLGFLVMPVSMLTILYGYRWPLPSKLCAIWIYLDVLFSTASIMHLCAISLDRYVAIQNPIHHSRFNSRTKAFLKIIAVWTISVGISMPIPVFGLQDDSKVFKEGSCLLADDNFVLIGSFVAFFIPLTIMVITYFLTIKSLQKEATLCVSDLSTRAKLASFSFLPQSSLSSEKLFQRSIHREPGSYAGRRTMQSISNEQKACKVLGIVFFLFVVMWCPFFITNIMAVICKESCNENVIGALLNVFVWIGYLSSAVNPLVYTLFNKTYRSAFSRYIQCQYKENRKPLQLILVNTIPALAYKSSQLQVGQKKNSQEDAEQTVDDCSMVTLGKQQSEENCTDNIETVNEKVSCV
Chain of 5-hydroxytryptamine receptor 1B (P28222 whole entry): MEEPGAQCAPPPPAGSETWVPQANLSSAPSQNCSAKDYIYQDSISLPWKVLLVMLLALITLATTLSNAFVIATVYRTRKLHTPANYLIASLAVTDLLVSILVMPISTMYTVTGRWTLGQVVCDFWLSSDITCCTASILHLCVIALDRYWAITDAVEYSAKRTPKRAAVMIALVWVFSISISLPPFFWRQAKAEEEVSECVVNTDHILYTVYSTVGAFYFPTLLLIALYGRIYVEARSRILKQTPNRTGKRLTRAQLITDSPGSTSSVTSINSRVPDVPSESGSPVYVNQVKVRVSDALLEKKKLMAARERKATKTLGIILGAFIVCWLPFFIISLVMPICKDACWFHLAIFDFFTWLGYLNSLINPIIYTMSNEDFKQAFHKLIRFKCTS
Chain of Sigma non-opioid intracellular receptor 1 (Homo sapiens) (Q99720 whole entry): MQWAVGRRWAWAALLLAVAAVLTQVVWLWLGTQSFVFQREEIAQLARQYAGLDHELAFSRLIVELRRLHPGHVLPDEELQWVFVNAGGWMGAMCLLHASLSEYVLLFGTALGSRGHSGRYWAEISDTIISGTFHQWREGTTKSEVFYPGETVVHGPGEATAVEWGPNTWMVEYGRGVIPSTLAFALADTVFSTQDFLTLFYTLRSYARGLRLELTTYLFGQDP

In general, inhibition refers to the relative decrease from the control value, in per cent. As usually defined, the Ki is the dissociation constant of the complex between target and ligand, obtained from inhibition or displacement. Lower therefore signals higher affinity. For orientation: IC50 means the concentration that inhibits the measured activity by half. Higher therefore signals weaker potency in that assay. Turning to `C[C@H](N)Cn1ncc2ccc(O)cc21`, the inhibition in data set [1] is -6.46%; in data set [2] it was 6.69%; in data set [3], -7.77%; in data set [6], 9.07%; in [7], 13.2%; in [8], 0.86%. The inhibition in data set [10] is -5.17%; in [11] it was 0.28%; in data set [12], 2.41%; in data set [13] it was 0.47%; in data set [15] it was 0.17%. The inhibition at 0.001 µM in data set [4] is 2.17%. The compound further yielded a T1/2 in data set [5] of 4.6 yr. The compound also registered a Ki in data set [9] of over 10000 nM. In [14], this compound came in with an IC50 of 0.58 nM.
